Reference: publication PMC7456477, “Pharmacokinetic Study of Thirteen Ingredients after the Oral Administration of Flos Chrysanthemi Extract in Rats by UPLC-MS/MS” (BioMed Research International, 2020)

Tests used:
[1] = Stability of analytes in rat plasma (QC samples under four storage conditions); assay type: in vitro ADME; conditions: n = 6
Method: To study the stability of all compounds in rat plasma, low, medium, and high concentrations of QC samples were tested under the following test conditions: stored at an autosampler for 12 hours, stored at room temperature for 6 hours, put through three freeze/thaw cycles, and stored at -80°C for 14 days. Three QC concentrations were tested for each of the above conditions.
The stability of all 13 analytes during sample collection and processing was evaluated with the various storage conditions being tested on spiked plasma samples at three QC concentrations.

[2] = Pharmacokinetic study in rat plasma after oral administration of Flos Chrysanthemi extract (UPLC-MS/MS); assay type: in vivo, Sprague-Dawley rats; conditions: rats, oral Flos Chrysanthemi extract 10 g/kg; for AUC(0-inf) / Cmax / Tmax / half-life / AUC / k el: male, Sprague-Dawley, rat, plasma, n = 6; for AUC: read-out: AUC(0 − tn); for k el: read-out: Ke (converted)
Method: Six male Sprague-Dawley rats (250 ± 5 g) were purchased from Huafukang Bioscience Co., Inc. (Beijing, China). The rats were adapted to the facility for a week. Before the experiments, rats were fasted for 12 h, although drinking water was readily accessible. Flos Chrysanthemi extract was dissolved in CMC-Na aqueous solution and orally administered to the animals once at 10 g/kg. Blood samples (220 μL) were taken from the orbital venous plexus of rats at 0, 0.03, 0.08, 0.17, 0.25, 0.5, 1, 2, 4, 6, 8, 10, 12, and 24 h after extract administration. Blood samples were promptly centrifuged at 6000 rpm for 10 min, and plasma samples were collected. The obtained plasma was stored at -80°C until analysis. “Drug and Statistics 3.0” software (Medical College of Wannan, China) was used to calculate pharmacokinetic parameters. The animal protocol was approved by the Animal Ethics Committee of Tianjin University of Traditional Chinese Medicine (TCM-LAEC20190056).
Plasma samples from rats orally administered with Flos Chrysanthemi extract (10.0 g/kg) were analysed with UPLC-MS/MS. Plasma concentration-time curves are shown in Figure 3, and the primary pharmacokinetic parameters of each analyte are summarized in Table 6.

[3] = spiked concentration 4000 ng/mL
[4] = spiked concentration 1000 ng/mL
[5] = spiked concentration 2000 ng/mL

AUC(0-inf) [2] [ng·h/mL]	Cmax [2] [ng/mL]	Tmax [2] [h]	half-life [2] [h]	AUC [2] [ng·h/mL]	k el [2] [s⁻¹]	Molecule	Measured concentration, -80°C for 14 days ([1]; spiked concentration 5 ng/mL) [ng/mL]	Measured concentration, Autosampler for 12 h ([1]; spiked concentration 5 ng/mL) [ng/mL]	Measured concentration, Room temperature for 6 h ([1]; spiked concentration 5 ng/mL) [ng/mL]	Measured concentration, Three freeze-thaw cycles ([1]; spiked concentration 5 ng/mL) [ng/mL]	Measured concentration, -80°C for 14 days ([1]; spiked concentration 50 ng/mL) [ng/mL]	Measured concentration, Autosampler for 12 h ([1]; spiked concentration 50 ng/mL) [ng/mL]	Measured concentration, Room temperature for 6 h ([1]; spiked concentration 50 ng/mL) [ng/mL]	Measured concentration, Three freeze-thaw cycles ([1]; spiked concentration 50 ng/mL) [ng/mL]	Measured concentration, -80°C for 14 days [1, 4] [ng/mL]	Measured concentration, Three freeze-thaw cycles [1, 4] [ng/mL]	other results
25100 ± 2230	2080 ± 307	0.5	8.89 ± 4.01	24200 ± 2110	2.78e-05	O=c1cc(-c2ccc(O)c(O)c2)oc2cc(O)cc(O)c12 [Luteolin]	–	–	–	–	–	–	–	–	–	–	Measured concentration, -80°C for 14 days ([1]; spiked concentration 20 ng/mL): 17.4 ± 0.3 ng/mL; Measured concentration, Autosampler for 12 h ([1]; spiked concentration 20 ng/mL): 21.3 ± 0.4 ng/mL; Measured concentration, Room temperature for 6 h ([1]; spiked concentration 20 ng/mL): 20.3 ± 0.3 ng/mL; Measured concentration, Three freeze-thaw cycles ([1]; spiked concentration 20 ng/mL): 23.2 ± 0.7 ng/mL; Measured concentration, -80°C for 14 days ([1]; spiked concentration 200 ng/mL): 195.1 ± 2.6 ng/mL; Measured concentration, Autosampler for 12 h ([1]; spiked concentration 200 ng/mL): 181.7 ± 0.8 ng/mL; Measured concentration, Room temperature for 6 h ([1]; spiked concentration 200 ng/mL): 193.5 ± 3.3 ng/mL; Measured concentration, Three freeze-thaw cycles ([1]; spiked concentration 200 ng/mL): 223.7 ± 1.5 ng/mL; Measured concentration, -80°C for 14 days [1, 3]: 4195.2 ± 15.1 ng/mL; Measured concentration, Autosampler for 12 h [1, 3]: 3656.3 ± 33.7 ng/mL; Measured concentration, Room temperature for 6 h [1, 3]: 4419.0 ± 9.2 ng/mL; Measured concentration, Three freeze-thaw cycles [1, 3]: 4475.1 ± 11.8 ng/mL
1470 ± 614	96.4 ± 24.8	0.69 ± 0.49	13.9 ± 10.2	1320 ± 489	6.94e-05	O=c1cc(-c2ccc(O)cc2)oc2cc(O[C@@H]3O[C@H](CO)[C@@H](O)[C@H](O)[C@H]3O)cc(O)c12 [Apigenin 7-glucoside]	5.1 ± 0.2	4.3 ± 0.1	5.9 ± 0.1	5.6 ± 0.4	51.1 ± 0.4	44.5 ± 0.7	50.5 ± 1.0	53.7 ± 0.6	1108.3 ± 25.6	1112.8 ± 7.2	Measured concentration, Autosampler for 12 h [1, 4]: 1077.6 ± 9.6 ng/mL; Measured concentration, Room temperature for 6 h [1, 4]: 1086.7 ± 12.9 ng/mL
–	–	–	–	–	–	Isoquercitrin	4.5 ± 0.1	4.0 ± 0.2	4.7 ± 0.2	5.6 ± 0.1	50.7 ± 2.1	41.6 ± 0.5	49.0 ± 1.2	54.5 ± 0.8	1006.3 ± 30.5	1110.5 ± 21.8	Detection in plasma over the sampling time ([2]; result in words): detected only at the first few blood sampling points
6730 ± 2280	749 ± 195	0.5 ± 0.27	6.17 ± 1.43	6450 ± 1810	3.33e-05	O=C(O)[C@H]1O[C@@H](Oc2cc(O)c3c(=O)cc(-c4ccc(O)c(O)c4)oc3c2)[C@H](O)[C@@H](O)[C@@H]1O [Luteolin 7-O-glucuronide]	–	–	–	–	–	–	–	–	–	–	Measured concentration, -80°C for 14 days ([1]; spiked concentration 10 ng/mL): 8.8 ± 0.2 ng/mL; Measured concentration, Autosampler for 12 h ([1]; spiked concentration 10 ng/mL): 9.6 ± 0.3 ng/mL; Measured concentration, Room temperature for 6 h ([1]; spiked concentration 10 ng/mL): 10.9 ± 0.8 ng/mL; Measured concentration, Three freeze-thaw cycles ([1]; spiked concentration 10 ng/mL): 11.1 ± 0.1 ng/mL; Measured concentration, -80°C for 14 days ([1]; spiked concentration 100 ng/mL): 99.7 ± 0.3 ng/mL; Measured concentration, Autosampler for 12 h ([1]; spiked concentration 100 ng/mL): 90.7 ± 0.4 ng/mL; Measured concentration, Room temperature for 6 h ([1]; spiked concentration 100 ng/mL): 110.9 ± 1.2 ng/mL; Measured concentration, Three freeze-thaw cycles ([1]; spiked concentration 100 ng/mL): 112.6 ± 0.5 ng/mL; Measured concentration, -80°C for 14 days [1, 5]: 1930.7 ± 22.5 ng/mL; Measured concentration, Autosampler for 12 h [1, 5]: 1960.1 ± 38.5 ng/mL; Measured concentration, Room temperature for 6 h [1, 5]: 2214.4 ± 17.9 ng/mL; Measured concentration, Three freeze-thaw cycles [1, 5]: 2225.7 ± 9.3 ng/mL
